{
  "source": "patent US9788546B2",
  "about": "“Synergistic pesticidal compositions and related methods” (DOW AGROSCIENCES LLC, priority 2013, dated 2017)",
  "format_in_all_cases": "in vivo",
  "key": {"[1]": {"test_system": "brown stink bugs, Euschistus heros", "test": "Field spray and mesh cage test with bifenthrin, average mortality at 1, 2, 4, and 7 days", "details": "1, 2, 4, and 7 days after treatment", "protocol": "Two emulsifying concentrate pesticidal compositions with a weight ratio of compound I to bifenthrin of 1:1 were prepared. The first comprising 0.0167 weight % of compound I and about 0.0167 weight % of bifenthrin and the second comprising 0.0333 weight % compound I and 0.0333 weight % bifenthrin. The compositions were diluted and applied to the field using a spray volume of […]. The application was done using a CO2 backpack sprayer with a solid cone nozzle TXVK-8 (ConeJet). Plants were allowed to air dry and then were placed in a mesh cage where different instar stink bugs were infested in two different trials (3rd and 4th nymphal stage, and adults). Average stink bug mortality was assessed at 1, 2, 4, and 7 days after application counting the number of dead insects and calculating the percent control based on the survivorship in the untreated treatment.\nThe average percent control of the pesticidal composition against brown stink bugs, Euschistus heros, was determined as the “Average Observed” action, and compared to the average of those obtained by using about 0.0167 weight %, 0.0333 weight %, and 0.0667 weight % of compound I alone, and the average of those obtained using about 0.0167 weight % and 0.0333 weight % of bifenthrin alone. The “Colby's Expected Action” was calculated using Colby's equation as discussed previously. […]"}, "[2]": {"test_system": "brown stink bugs, Euschistus heros", "test": "Field spray and mesh cage test with alpha-cypermethrin, average mortality at 1 and 3 days", "details": "1 and 3 days after treatment", "protocol": "Two emulsifying concentrate pesticidal compositions with a weight ratio of compound I to alpha-cypermethrin of 1:1 were prepared. The first comprising 0.0167 weight % of compound I and about 0.0167 weight % of alpha-cypermethrin and the second comprising 0.0333 weight % compound I and 0.0333 weight % alpha-cypermethrin. The compositions were diluted and applied to the field using a spray volume of […]. The application was done using a CO2 backpack sprayer with a solid cone nozzle TXVK-8 (ConeJet). Plants were allowed to air dry and then were placed in a mesh cage where different instar stink bugs were infested (3rd and 4th nymphal stage, and adults). Average stink bug mortality was assessed at 1 and 3 days after application counting the number of dead insects and calculating the percent control based on the survivorship in the untreated.\nThe average percent control of the pesticidal composition against brown stink bugs, Euschistus heros, was determined as the “Average Observed” action, and compared to the average of those obtained by using about 0.0167 weight %, 0.0333 weight %, and 0.0667 weight % of compound I alone, and the average of those obtained using about 0.0167 weight % and 0.0333 weight % of alpha-cypermethrin alone. The “Colby's Expected Action” was calculated using Colby's equation as discussed previously. […]"}, "[3]": {"test_system": "green stink bugs, Nezara viridula", "test": "Field test, backpack sprayer, natural stink bug infestation", "details": "Compound I alone, 0.0306 weight %", "protocol": "(§1) Dyne-Amic at 0.625% V/V was used as an adjuvant in the tank mix, and the application was done using a backpack sprayer. Trial was conducted under a natural stink bug infestation. Numbers of adults and nymphs were counted four days after application in 1.82 meters of row per plot using a shake sheet (0.91 meters by 2 rows).\n(§2) The “Colby's Expected Action” was calculated using Colby's equation as discussed previously."}, "[4]": {"test_system": "brown stink bug, Euschistus servus (Say)", "test": "Field test, backpack sprayer, natural stink bug infestation", "details": "Compound I alone", "protocol": "as §1, §2, §2, §2"}, "[5]": {"test_system": "brown stink bug, Euschistus heros", "test": "Bean piece dip bioassay, third-instar nymphs", "details": "Compound I alone, 0.04 weight %", "protocol": "The active compounds were formulated in a 10% acetone solution with 0.025% non-ionic surfactant, TWEEN® 20. Bioassays were performed for each different active solution. Bean pieces (about one inch-long) were used for the tests. Four bean pieces were placed in each tested active solution and left there for 10 minutes. Bean pieces were taken out of the active solution, and each piece was placed in a well in a 32-well tray and allowed to air dry. Three third-instar nymphs of brown stink bug, Euschistus heros, were infested into each well. The percent control of the pesticidal composition against brown stink bug, Euschistus heros, was determined as the “Observed” action, and compared to those obtained by using about 0.04 weight % of compound I, and using about 0.0025 weight % of lambda-cyhalothrin alone. The “Colby's Expected Action” was calculated using Colby's equation as discussed previously."}, "[6]": {"test_system": "Lygus bug, Lygus hesperus (Knight)", "test": "Treated string bean bioassay, four-day old nymphs", "details": "Compound II alone, 0.04 weight %", "protocol": "String beans were treated with different active compounds for ten minutes. Three four-day old nymphs of Lygus bug, Lygus hesperus (Knight), were infested onto each bean sample."}, "[7]": {"test_system": "stink bugs (Edessa meditabunda, Euschistus heros, and Piezodorus guildinii)", "details": "Compound II alone, field test", "protocol": "[…] Silwet L-77 at 0.1% V/V was used as an adjuvant in the tank mix, and the application was done using a CO2 backpack sprayer. Trial was conducted under a natural stink bug infestation. […] The stink bug population consisted on about 75% Edessa meditabunda, 20% of Euschistus heros, and 5% Piezodorus guildinii.\nThis was about 48% improvement over the Colby's expected action."}, "[8]": {"test_system": "Western flower thrips, Frankliniella occidentalis (Pergande)", "test": "Cotton leaf punch dip bioassay, mortality of nymphs", "details": "Compound II alone, 0.04 weight %; Example 5", "protocol": "The active compounds were formulated in a 10% acetone solution with 0.025% non-ionic surfactant, TWEEN® 20. Cotton leaf punches were used for bioassays. Two cotton leaf punches were placed in each solution and left there for 10 minutes. Leaves were taken out of the solution, placed on a piece of filter paper in separated Petri dishes, and air dried. Each leaf disc was considered a repetition. Five nymph of Western flower thrips, Frankliniella occidentalis, were infested per repetition. The assessment of mortality was done three days after infestation. The percent control of the pesticidal composition Western flower thrips, Frankliniella occidentalis (Pergande), was determined as the “Observed” action, and compared to those obtained by using about 0.04 weight % of compound II, and using about 0.02 weight % of lambda-cyhalothrin alone. The “Colby's Expected Action” was calculated using Colby's equation as discussed previously.\nThe active compounds were formulated in a 10% acetone solution with 0.025% non-ionic surfactant, TWEEN® 20. Cotton leaf punches were used for bioassays. Two cotton leaf punches were placed in each solution and left there for 10 minutes. Leaves were taken out of the solution, placed on a piece of filter paper in separated Petri dishes, and air dried. Each leaf disc was considered a repetition. […]"}, "[9]": {"test_system": "brown stink bug, Euschistus heros", "test": "Diet treatment bioassay, second-instar nymphs", "details": "Compound II alone, 0.04 weight %"}, "[10]": {"details": "Compound I alone (1:0), average of 0.0167, 0.0333 and 0.0667 weight %"}},
  "note": "Read-outs that look alike come from different tables or passages of the source.",
  "data": [
    {"compound": "Cc1c(COC(=O)[C@@H]2[C@H](/C=C(\\Cl)C(F)(F)F)C2(C)C)cccc1-c1ccccc1", "note": "(racemic) [Bifenthrin, bifenthrin, reference compound]", "values": [
      {"measurement": "Average % Control", "setting": "[1]; Bifenthrin alone (0:1), average of 0.0167 and 0.0333 weight %", "value": 41.6, "unit": "%"}
    ]},
    {"compound": "CCN(C(=O)CCSCCC(F)(F)F)c1cn(-c2cccnc2)nc1Cl", "note": "[Compound I, N-(3-chloro-1-(pyridin-3-yl)-1H-pyrazol-4-yl)-N-ethyl-3-((3,3,3-trifluoropropyl)thio)propanamide]", "values": [
      {"measurement": "Average % Control", "setting": "[2]; [10]", "value": 6.93, "unit": "%"},
      {"measurement": "Average % Control", "setting": "[1]; [10]", "value": 9.34, "unit": "%"},
      {"measurement": "% Control Four Days After Treatment", "setting": "[3]; Example 11A", "value": 7.39, "unit": "%"},
      {"measurement": "% Control Four Days After Treatment", "setting": "[3]; Example 11B", "value": 11.94, "unit": "%"},
      {"measurement": "% Control Four Days After Treatment", "setting": "[4]; 0.0306 weight %", "value": 15.15, "unit": "%"},
      {"measurement": "% Control Four Days After Treatment", "setting": "[4]; 0.0459 weight %", "value": 15.15, "unit": "%"},
      {"measurement": "% Control Four Days After Treatment", "setting": "[5]", "value": 17, "unit": "%"}
    ]},
    {"compound": "CCN(C(=O)CC[S+]([O-])CCC(F)(F)F)c1cn(-c2cccnc2)nc1Cl", "note": "(stereo not drawn) [Compound II, N-(3-chloro-1-(pyridin-3-yl)-1H-pyrazol-4-yl)-N-ethyl-3-((3,3,3-trifluoropropyl)sulfinyl)propanamide]", "values": [
      {"measurement": "% Control Five Days After Treatment", "setting": "[6]", "value": 25, "unit": "%"},
      {"measurement": "% Control Three Days After Treatment", "setting": "[7]; 0.10 weight %", "value": 12.5, "unit": "%"},
      {"measurement": "% Control Three Days After Treatment", "setting": "[7]; 0.13 weight %", "value": 18.8, "unit": "%"},
      {"measurement": "% Control Three Days After Treatment", "setting": "[7]; 0.20 weight %", "value": 6.3, "unit": "%"},
      {"measurement": "% Control Three Days After Treatment", "setting": "[8]", "value": 20, "unit": "%"},
      {"measurement": "% Control After Six Days of Treatment", "setting": "[9]", "value": 0, "unit": "%"}
    ]},
    {"compound": "CC1(C)C(C=C(Cl)Cl)C1C(=O)OC(C#N)c1cccc(Oc2ccccc2)c1", "note": "(stereo not drawn) [alpha-Cypermethrin, alpha-cypermethrin, reference compound]", "values": [
      {"measurement": "Average % Control", "setting": "[2]; alpha-Cypermethrin alone (0:1), average of 0.0167 and 0.0333 weight %", "value": 21.1, "unit": "%"}
    ]}
  ]
}
